Laboratory results as given in US11931424B2, “Combination MCL-1 inhibitors with anti-body drug conjugates” (Gilead Sciences, Inc., priority 2021, dated 2024).

Columns and labels:
Format in all cases: cell-based
[1] = tested on: panel of breast cancer cell lines; test: Compound A with targeted agents and chemotherapies, 72-hour in vitro proliferation assays
HCC1806 = test: Compound A + paclitaxel cell viability combination assay (Cell Titer Glo, Bliss synergy); conditions: Homo sapiens, read-out: Percent Inhibition
Experimental: (§1) Cells were passaged according to ATCC guidelines with 0.25% Trypsin/EDTA (1× GIBCO-25200).
Viability assessments were performed using Cell Titer Glo™ (Promega #G9241) according to manufactures microwell plate protocol and read for luminescence on Synergy Neo2 plate reader.
For synergy matrix assays, TNBC cell lines were seeded 10,000 cells per well in clear-bottomed white 96-well plates (Corning #3909) in 100 μL of recommended cell culture medium. Plates were incubated at 37° C. and 100% RH for 20 hours prior to compound exposure.
Cells were then exposed to compound A with the same checkerboard matrix using D300 dispenser and incubated for 48 hours prior to measurement of viability by Cell Titer Glo.
(§2) Calculated values were compared to experimental results generated in the sixty-three-concentration checkerboard. Synergy or antagonism scores were generated depending on whether the observed growth inhibition was greater than or less than the calculated values, respectively.
These differences were summed up across the whole checker-board (sixty-three wells) to give cumulative synergy and antagonism scores with units of μM^2% to reflect the 2D surface of the dose responses.
(§3) Data for combination assays is presented in three formats.

HCC1187 (TNBC) = test: Compound A + SN-38 cell viability combination assay (Cell Titer Glo, Bliss synergy); conditions: HCC1187, 1st Replicate (n = 5), 72 hours; SN-38 0.0000 μM; Compound A μM = c0 of the row
Description: as §1, §2, §3

**Q.** What does the source list for `CC(=O)O[C@H]1C(=O)[C@@]2(C)[C@H]([C@H](OC(=O)c3ccccc3)[C@]3(O)C[C@H](OC(=O)[C@H](O)[C@@H](NC(=O)c4ccccc4)c4ccccc4)C(C)=C1C3(C)C)[C@]1(OC(C)=O)CO[C@@H]1C[C@@H]2O` [Paclitaxel, reference compound]?
**A.** Best CI ([1]; 72 h): 0.32; Best CI ([1]; AU565 cell line, compound A × partner, 72-hour proliferation): 0.19; Best CI ([1]; BT-20 cell line, compound A × partner, 72-hour proliferation): 0.05; Best CI ([1]; BT-474 cell line, compound A × partner, 72-hour proliferation): 0.16; Best CI ([1]; BT-549 cell line, compound A × partner, 72-hour proliferation): 0.27; Best CI ([1]; CAL-51 cell line, compound A × partner, 72-hour proliferation): 0.50; Best CI ([1]; CAL-85-1 cell line, compound A × partner, 72-hour proliferation): 0.23; Best CI ([1]; CAL-148 cell line, compound A × partner, 72-hour proliferation): 0.25; Best CI ([1]; CAMA-1 cell line, compound A × partner, 72-hour proliferation): 0.05; Best CI ([1]; DU-4475 cell line, compound A × partner, 72-hour proliferation): 0.57; Best CI ([1]; EVSA-T cell line, compound A × partner, 72-hour proliferation): 0.26; Best CI ([1]; HCC38, compound A × partner, 72-hour proliferation): 0.21; Best CI ([1]; HCC70, compound A × partner, 72-hour proliferation): 0.14; Best CI ([1]; HCC1143, compound A × partner, 72-hour proliferation): 0.35; Best CI ([1]; HCC1569, compound A × partner, 72-hour proliferation): 0.41; Best CI ([1]; HCC1806, compound A × partner, 72-hour proliferation): 0.10; Best CI ([1]; HCC1937, compound A × partner, 72-hour proliferation): 0.18; Best CI ([1]; HCC1954, compound A × partner, 72-hour proliferation): 0.05; Best CI ([1]; HCC2218, compound A × partner, 72-hour proliferation): 0.55; Best CI ([1]; HDQ-P1, compound A × partner, 72-hour proliferation): 0.82; Best CI ([1]; HMC-1-8, compound A × partner, 72-hour proliferation): 0.11; Best CI ([1]; JIMT-1, compound A × partner, 72-hour proliferation): 0.50; Best CI ([1]; MCF7 cells, Compound A × partner agent, 72-hour proliferation): 0.32; Best CI ([1]; MDA-MB-175-VII cells, Compound A × partner agent, 72-hour proliferation): 0.13; Best CI ([1]; MDA-MB-231 cells, Compound A × partner agent, 72-hour proliferation): 0.33; Best CI ([1]; MDA-MB-361 cells, Compound A × partner agent, 72-hour proliferation): 0.50; Best CI ([1]; MDA-MB-436 cells, Compound A × partner agent, 72-hour proliferation): 0.68; Best CI ([1]; MDA-MB-453 cells, Compound A × partner agent, 72-hour proliferation): 0.07; Best CI ([1]; MDA-MB-468 cells, Compound A × partner agent, 72-hour proliferation): 0.27; Best CI ([1]; SK-BR-3 cells, combination of compound A with the named agent, 72-hour proliferation): 0.70; Best CI ([1]; SUM159PT cells, combination of compound A with the named agent, 72-hour proliferation): 0.06; Best CI ([1]; T47D cells, combination of compound A with the named agent, 72-hour proliferation): 0.08; Best CI ([1]; ZR-75-1 cells, combination of compound A with the named agent, 72-hour proliferation): 0.07; Best CI ([1]; ZR-75-30 cells, combination of compound A with the named agent, 72-hour proliferation): 0.41; inhibition at 0.0005 µM (HCC1806): 2.3%; inhibition at 1 µM (HCC1806): 64.8%; inhibition at 3 µM (HCC1806): 69.9%

**Q.** How did the “Percent Inhibition” value (HCC1187 (TNBC)) turn out when `COc1nn(C)cc1C(=O)N[S@@]1(=O)=NC(=O)c2ccc3c(c2)N(C[C@@H]2CC[C@H]2[C@@H](OC)/C=C/C[C@H](C)C1)C[C@@]1(CCCc2cc(Cl)ccc21)CO3` [Compound A, N-[(4S,7aR,9aR,10S,11E,14S)-6′-chloro-10-methoxy-14-methyl-16-oxido-18-oxo-3′,4′,7,7a,8,9,9a,10,13,14,15,18-dodecahydro-2′H-spiro[1,19-(ethanediylidene)-16λ^4-cyclobuta[i][1,4]oxazepino[3,4-f][1,2,7]thiadiazacyclohexadecine-4,1′-naphthalen]-16-yl]-3-methoxy-1-methyl-1H-pyrazole-4-carboxamide] was run?
**A.** Its value is 99.2%.
